Laboratory results from US6849442B1, “Biosensor materials and methods” (Cambridge University Technical Services Limited, priority 1997, dated 2005).

Key:
R. corallina cells = details: for induction of catechol 2,3-dioxygenase activity: R. corallina, meta pathway marker; for ring cleavage dioxygenase pathway induced (meta / ortho): crude enzyme extracts of cells grown on MMRN supplemented with the xenobiotic
Method: (§1) “MMRN” is prepared as a multicomponent stock to avoid the production of uncharacterised compounds during autoclaving. A “basic salts” stock is prepared containing 6 g/L Na2HPO4; 3 g/L KH2PO4; 1 g/L NaCl; 4 g/L (NH4)2SO4; adjusted to pH 7.4 and made up to 989 mls with distilled water and autoclaved. A “100×A salts” solution is prepared consisting of 20 g/L MgSO4; 2000 mg/L FeSO4.7H2O; 200 mg/L FeCl3; 200 mg/L MnSO4.H2O is prepared in distilled water and autoclaved. A “1000×B salts” solution consisting of 500 mg/L ZnSO4.7H2O; 200 mg/L CuCl2·2H2O; 200 mg/L Na2B4O7.10H2O; 100 mg/L (NH4)7Mo6O24.4H2O is prepared in distilled water and autoclaved. To prepare 1 litre of MMRN, sterile solutions of 989 mls basic salts, 10 mls 100×A salts, 1 ml 1000×B salts are combined. For solid media, agar is added to 1.4% w/v. Carbon-energy sources are supplemented to 80 μM final concentrations for soluble molecules, or as vapour for insoluble molecules (where their concentration is decided by their individual partition coefficients generally ranging from 3 to 40 μM). Petri plates or liquid cultures are incubated at 28° C. to 30° C. for up to 72 hours to accumulate sufficient biomass for genetic and biochemical testing.

R. corallina [1] = experiment: Genetic induction of the toluene degradative pathway, substrate supplied as vapour; format: cell-based, Rhodococcus corallina; details: level in water
Method: as §1

R. corallina [2] = experiment: Growth-inducing substrate test on MMRN; format: cell-based, Rhodococcus corallina
From the text: Mycolic acid-containing bacteria may then be screened for specific hydrocarbon-inducible catabolic pathways using MMRN supplemented with the target xenobiotic pollutant. Strains for which the target molecule is growth inducing may then be isolated and used to as a source of genetic regulatory elements for biosensors or as specific biocatalytic functions. Using this protocol mycolic acid containing bacteria have been and may be rapidly identified with novel and useful catabolic properties. This approach is also useful for identification and isolation of mycolic acid containing bacteria with biocatalytic properties.

| Molecule | induction of catechol 2,3-dioxygenase activity (R. corallina cells) | ring cleavage dioxygenase pathway induced (meta / ortho) (R. corallina cells) | level at which genetic induction of the toluene degradative pathway occurs (R. corallina [1]) | acts as growth inducing substrate (R. corallina [2]) |
| --- | --- | --- | --- | --- |
| O=C(O)c1ccccc1 [benzoate] | not | exclusively induces the ortho pathway | – | – |
| Oc1ccccc1 [phenol] | – | exclusively induces the ortho pathway | – | – |
| Cc1ccccc1 [toluene] | induced | induced the meta pathway | less than 200 ppm | – |
| xylene | – | – | – | does not act as a growth inducing substrate |
